From patent US20090253693A1, “2H-BENZO[b][1,4]OXAZIN-3(4H)-ONE DERIVATIVES FOR USE AS STEAROYL CoA DESATURASE INHIBITORS” (priority 2008, published 2009)
Where a name gives a salt, the structure may show the parent alone.

What follows are molecules tested against T1, SCD (stearoyl-CoA desaturase) (Rattus norvegicus, UniProt P07308) (assay: SCD assay with rat liver microsomes ([3H]stearoyl CoA desaturation, adapted from Talamo and Bloch)). Details: rat liver microsomes 0.2 mg/ml final, 30 min preincubation, stearoyl CoA substrate, 45 min, room temperature.
T1 construct: The rat liver microsomes were collected according to the procedure described in Ozols (1990) Methods Enzm, 182:225; from tissue; host or cells: liver microsomes of male Sprague Dawley rats after induction with a carbohydrate-rich diet
T1 sequence (P07308 1-358): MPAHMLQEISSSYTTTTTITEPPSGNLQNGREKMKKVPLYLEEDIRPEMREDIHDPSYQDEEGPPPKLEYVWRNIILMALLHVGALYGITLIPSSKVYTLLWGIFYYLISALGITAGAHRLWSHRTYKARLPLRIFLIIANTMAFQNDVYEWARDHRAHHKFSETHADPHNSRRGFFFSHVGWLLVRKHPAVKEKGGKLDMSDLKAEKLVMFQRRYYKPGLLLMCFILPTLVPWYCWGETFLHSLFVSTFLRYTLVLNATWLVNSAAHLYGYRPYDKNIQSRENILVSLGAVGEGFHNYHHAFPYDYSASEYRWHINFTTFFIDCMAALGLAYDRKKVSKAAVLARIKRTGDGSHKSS
Format: biochemical
Excerpt: The identification of compounds of the invention as SCD inhibitors was readily accomplished using the SCD enzyme and microsomal assay procedure described in Talamo and Bloch (1969) Analytical Biochemistry 29:300-304.
The rat liver microsomes were collected according to the procedure described in Ozols (1990) Methods Enzm, 182:225.
Male Sprague Dawley Rats were placed on regimented fasting protocol for one week to stimulate SCD enzymatic activity. 48-hour periods were alternated between feeding and fasting to induce and down-regulate SCD activity with SCD activity being induced via carbohydrate rich diet prior to liver perfusion and collection.
The supernatant was then aspirated off and the collected microsomal pellet washed in 25 mL of Glycerol PBS (1× PBS 7.4, 20% Glycerol) and resuspended in 4-5 volumes of Glycerol PBS.
SCD was determined in the desaturase assay buffer. This assay buffer contained 0.1 M Tris buffer, pH 7.2, 2 mM NADH, 4.8 mM ATP, 0.5 mM CoA, 4.8 mM MgCl2, and 0.1% BSA.
The Procedure for the SCD Assay (Adapted from Talamo and Bloch (1969) Analytical Biochemistry 29:300-304)
1 μl of each compound of Formula I was added to an assay plate by a low volume (0.5-10 μL) multichannel pipette. A DMSO control was also prepared. The microsomes were quickly thawed and added to assay buffer so that a concentration of 0.4 mg/ml was achieved (0.2 mg/ml assay final). 50 μl of the microsome suspension in assay buffer was then added into each well in the compound assay plate, the plate was covered, and the microsomes preincubated with the compounds for 30 minutes on the orbital shaker, 50-75 rpm, at room temperature.
After preincubation, the reaction was initiated by the addition of 50 μl of substrate solution (20 μM Stearoyl CoA, [3H]Stearoyl CoA, 74nCi) to the preincubated microsomes/compound suspensions in MilliQ (Millipore) H2O. The reaction mixtures were then incubated for 45 minutes on the orbital shaker at 50-75 rpm at room temperature.
The reaction was terminated by the addition of 10 μl of 21% trichloroacetic acid (TCA) to the reaction mixture followed incubation on the orbital shaker for 30 minutes at 50-75 rpm at room temperature followed by centrifugation for 5 minutes at 3700 rpm.
50 μl of a 6% Bio-Bead suspension in H2O was added to the reaction mixture and the assay plate was sealed. The Bio-Bead mixture was incubated on the orbital shaker for 1 hour, 100-150 rpm at room temperature, and then the mixture was centrifuged at 2000 g for 5 minutes to pellet the Bio-Beads.
25 μl of the supernatant was harvested from each well and transferred to a detection plate. 100 μl of OptiPhase SuperMix scintillation cocktail (containing sufficient NaOH to neutralize the TCA) was added and the solutions mixed by vigorous shaking (300-400 rpm) for 5 minutes at room temperature.

Compared with CC(=O)NCCN1C(=O)C(C)Oc2ccc(NCc3ccc(Cl)c(Cl)c3)cc21 (racemic) [Compound 9, (±)-N-(2-(6-(3,4-dichlorobenzylamino)-2-methyl-3-oxo-2H-benzo[b][1,4]oxazin-4(3H)-yl)ethyl)acetamide], CC1Oc2ccc(NCc3ccc(Cl)c(Cl)c3)cc2N(CCNC(=O)CO)C1=O (racemic) [Compound 11, (±)-N-(2-(6-(3,4-dichlorobenzylamino)-2-methyl-3-oxo-2H-benzo[b][1,4]oxazin-4(3H)-yl)ethyl)-2-hydroxyacetamide] is higher in IC50: 1 to 10 nM for the first, 80 nM for the second. The first is the more potent here.

CC(=O)NCCN1C(=O)C(C)Oc2ccc(NCc3ccc(Cl)c(C(F)(F)F)c3)cc21 (racemic) [Compound 10, (±)-N-(2-(6-(4-chloro-3-(trifluoromethyl)benzylamino)-2-methyl-3-oxo-2H-benzo[b][1,4]oxazin-4(3H)-yl)ethyl)acetamide] and CC1Oc2ccc(NCc3ccc(Cl)c(C(F)(F)F)c3)cc2N(CCNC(=O)CO)C1=O (racemic) [Compound 12, (±)-N-(2-(6-(4-chloro-3-(trifluoromethyl)benzylamino)-2-methyl-3-oxo-2H-benzo[b][1,4]oxazin-4(3H)-yl)ethyl)-2-hydroxyacetamide] fall in the same range of IC50: 1 to 10 nM for the first, 1 to 10 nM for the second.

Compared with NC(=O)CCN1C(=O)COc2ccc(NCc3ccc(Cl)c(Cl)c3)cc21 [Compound 1, 3-(6-(3,4-dichlorobenzylamino)-3-oxo-2H-benzo[b][1,4]oxazin-4(3H)-yl)propanamide], CC(=O)NCCN1C(=O)COc2ccc(NCc3ccc(Cl)c(Cl)c3)cc21 [Compound 3, N-(2-(6-(3,4-dichlorobenzylamino)-3-oxo-2H-benzo[b][1,4]oxazin-4(3H)-yl)ethyl)acetamide hydrochloride] is 5-fold lower in IC50: 53.5 nM for the first, 10.7 nM for the second. The second is the more potent here.

Compared with CC(=O)NCCN1C(=O)COc2ccc(NCc3ccccc3)cc21 [Compound 2, N-(2-(6-(benzylamino)-3-oxo-2H-benzo[b][1,4]oxazin-4(3H)-yl)ethyl)acetamide hydrochloride], CC(=O)NCCN1C(=O)COc2ccc(NCc3ccc(Cl)c(C(F)(F)F)c3)cc21 [Compound 5, N-(2-(6-(4-chloro-3-(trifluoromethyl)benzylamino)-3-oxo-2H-benzo[b][1,4]oxazin-4(3H)-yl)ethyl)acetamide hydrochloride] is 3100-fold lower in IC50: 14900 nM for the first, 4.87 nM for the second. The second is the more potent here.

Going from O=C1COc2ccc(NCc3ccc(Cl)c(Cl)c3)cc2N1CCOc1ccccc1 [Compound 4, 6-(3,4-dichlorobenzylamino)-4-(2-phenoxyethyl)-2H-benzo[b][1,4]oxazin-3(4H)-one] to O=C(NCCN1C(=O)COc2ccc(NCc3ccc(Cl)c(Cl)c3)cc21)c1ccccc1 [Compound 7, N-(2-(6-(3,4-dichlorobenzylamino)-3-oxo-2H-benzo[b][1,4]oxazin-4(3H)-yl)ethyl)benzamide], the IC50 falls from 22200 nM to 2.52 nM (8800-fold).

Going from CC(=O)NCCN1C(=O)COc2ccc(NCc3ccc(F)c(C(F)(F)F)c3)cc21 [Compound 6, N-(2-(6-(4-fluoro-3-(trifluoromethyl)benzylamino)-3-oxo-2H-benzo[b][1,4]oxazin-4(3H)-yl)ethyl)acetamide hydrochloride] to O=C(CO)NCCN1C(=O)COc2ccc(NCc3ccc(Cl)c(Cl)c3)cc21 [Compound 8, N-(2-(6-(3,4-dichlorobenzylamino)-3-oxo-2H-benzo[b][1,4]oxazin-4(3H)-yl)ethyl)-2-hydroxyacetamide hydrochloride], the IC50 falls from 7.8 nM to 1.39 nM (5.6-fold).
